These are literature values, as cited in US10391176B2, “Composition, its preparation and method of use in treating skin disorders” (priority 2016, dated 2019).

Consider `COc1cc(C(=O)NS(=O)(=O)c2ccccc2C)ccc1Cc1cn(C)c2ccc(NC(=O)OC3CCCC3)cc12` [Zafirlukast, 4-(5-cyclopentyloxy-carbonylamino-1-methyl-indol-3-ylmethyl)-3-methoxy-N-o-tolylsulfonylbenzamide], for which, for the setting “acetone”, the solubility in acetone entry is on record as “freely soluble”. Besides, the solubility in dimethylsulfoxide result (dimethylsulfoxide) was “freely soluble”. For the same molecule, for the setting “methanol”, the solubility in methanol entry is “slightly soluble”. Moreover, the solubility in tetrahydrofuran entry (tetrahydrofuran) was “freely soluble”. The solubility in water result (water) is on record as “practically insoluble”.
